Measurements: article PMC10503797, “Allosteric modulator potentiates β2AR agonist–promoted bronchoprotection in asthma models” (The Journal of Clinical Investigation, 2023)
Values after ≈ are worked out from the molar mass of the structure shown. Values joined by “and” are separate entries in the source; they are usually repeats but may differ in a detail not shown here. Equal values may be shown once.

Tests used:
murine WT β2AR = target: T1, murine WT β2AR (Mus musculus, UniProt P18762); test: GloSensor cAMP, constitutive activity of overexpressed murine WT β2AR; format: cell-based
T1 construct: expressed in transfected cells; HEK293 GloSensor cells (cAMP assay)

murine V133F mutant β2AR = target: T2, murine V133F mutant β2AR (Mus musculus, UniProt P18762, V133F); test: GloSensor cAMP, constitutive activity of overexpressed murine V133F mutant β2AR; format: cell-based; conditions: Cmpd-6 at 5 μM, no orthosteric agonist
T2 construct: expressed in transfected cells; HEK293 GloSensor cells (cAMP assay)

C57BL/6J naive mice [1] = test: In vivo bronchoprotection protocol, methacholine-induced airway constriction (flexiVent); parameters: Newtonian resistance (Rn): unit not given here; conditions: for Newtonian resistance (Rn): Cmpd-6 10 mg/kg i.v., 10 mg/kg
Protocol: (§1) For the bronchoprotection protocol (A), bronchospasm was induced by i.v. administration of methacholine (25, 50, 100, 200, and 400 μg/kg). […] General Linear Model repeated measures ANOVA with Tukey’s posthoc test was used to determine the differences of airway responsiveness between DMSO- and Cmpd-6–treated conditions.
(§2) Airway hyperresponsiveness (AHR) was measured using the forced oscillation technique as described previously ([42]). […] For the bronchoprotection protocol, bronchospasm was induced by jugular vein i.v. administration of increasing doses of methacholine (25, 50, 100, 200, 400 μg/kg). […] Mice were ventilated with 100% oxygen at 150 breaths per minute, constant volume of 8 mL/kg and a 3 cm H2O positive end–expiratory pressure using a computer-controlled small animal ventilator (flexiVent, SCIREQ). The total lung impedance signal collected contained information about the resistance and elastance properties of the lung from which Newtonian resistance (Rn), a good indicator of the luminal diameter of the conducting airways, was calculated using the constant phase model. The heart rate data acquired using EKG electrodes was monitored to assess mouse viability and analgesia throughout the bronchoconstrictor protocols.

C57BL/6J naive mice [2] = test: In vivo bronchodilation protocol, albuterol in methacholine-preconstricted airways (flexiVent); conditions: Cmpd-6 10 mg/kg i.v.; methacholine […] + albuterol 1-30 μg/kg
Protocol: as §1, §2

[3] = Solubility by formation of precipitates under the microscope; format: physicochemical
Protocol: *Solubility was determined by formation of precipitates observed under the microscope. **Cell […]
binds an intracellular region of the β2AR. ***Log P, Log of the Partition coefficient that was calculated using ChemDraw Professional (version 22.2, PerkinElmer). DMSO, dimethyl […]
(1 picture or pasted object on this page, not shown here)

WT murine β2AR = WT murine β2AR (Mus musculus, UniProt P18762); test: 125I-CYP radioligand competition binding, WT murine β2AR; conditions: WT Cmpd-6
Protocol: (§3) Statistical analyses were performed using 1-way ANOVA, repeated (related) measures with Tukey’s posthoc test.

V133F mutant murine β2AR = V133F mutant murine β2AR (Mus musculus, UniProt P18762, V133F); test: 125I-CYP radioligand competition binding, V133F mutant murine β2AR; conditions: V133F Cmpd-6
Chain of V133F mutant murine β2AR (P18762 whole entry V133F): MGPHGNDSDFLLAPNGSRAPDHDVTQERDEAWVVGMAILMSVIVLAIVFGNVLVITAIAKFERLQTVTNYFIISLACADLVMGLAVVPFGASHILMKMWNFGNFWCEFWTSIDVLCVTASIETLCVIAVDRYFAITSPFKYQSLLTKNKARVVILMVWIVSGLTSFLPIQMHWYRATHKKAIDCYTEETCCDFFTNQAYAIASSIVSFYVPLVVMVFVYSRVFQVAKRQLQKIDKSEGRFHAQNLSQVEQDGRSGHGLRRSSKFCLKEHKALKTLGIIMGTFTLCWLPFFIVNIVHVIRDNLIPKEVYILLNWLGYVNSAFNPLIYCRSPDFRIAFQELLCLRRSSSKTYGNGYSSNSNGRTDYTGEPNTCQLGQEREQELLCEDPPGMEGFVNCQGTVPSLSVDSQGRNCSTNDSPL
Protocol: as §3

T1 sequence (P18762 whole entry): as the sequence (P18762 whole entry V133F) above, with F133V counted along it
Chain of WT murine β2AR (P18762 whole entry): as the sequence (P18762 whole entry V133F) above, with F133V counted along it
T2 sequence (P18762 whole entry V133F): as the sequence (P18762 whole entry V133F) above

In the case of `COc1ccc(Sc2ccc(S(=O)(=O)N(C)C(C)C)cc2C(=O)N[C@H](CC(N)=O)Cc2ccc(C(C)(C)C)cc2)cc1` [Cmpd-6], the “cAMP level (% of ISO-stimulated maximal response)” value (murine WT β2AR; Cmpd-6 at 5 μM, no orthosteric agonist, Murine WT) was 25.8782% and 38.8997% and 33.0059% and 37.3496%, the “cAMP, constitutive activity of overexpressed β2AR (Figure 4C)” value (murine WT β2AR; Species of β2AR: Murine) was 25.8782 and 38.8997 and 33.0059 and 37.3496 and the “cAMP level (% of ISO-stimulated maximal response)” value (murine V133F mutant β2AR) was 45.8463% and 58.5082% and 46.5958% and 56.3694%. For the same molecule, the “Bronchoprotective effect against methacholine-induced airway resistance” value (C57BL/6J naive mice [1]; Cmpd-6 10 mg/kg i.v. 10 minutes before methacholine) was “no bronchoprotective effect”, the “Newtonian resistance (Rn)” value (C57BL/6J naive mice [1]; Mch 0 μg/kg) was 0.362 and 0.310 and 0.287 and 0.300 and 0.311 and the “Newtonian resistance (Rn)” value (C57BL/6J naive mice [1]; Mch 25 μg/kg) was 0.550 and 0.482 and 0.346 and 0.471 and 0.465. The “Newtonian resistance (Rn)” value (C57BL/6J naive mice [1]; Mch 50 μg/kg) was 0.728 and 0.671 and 0.387 and 0.670 and 0.609, the “Newtonian resistance (Rn)” value (C57BL/6J naive mice [1]; Mch 100 μg/kg) was 0.886 and 0.904 and 0.565 and 0.976 and 0.931 and the “Newtonian resistance (Rn)” value (C57BL/6J naive mice [1]; Mch 200 μg/kg) was 1.570 and 1.261 and 0.919 and 1.518 and 1.725. For the same molecule, the “Newtonian resistance (Rn)” value (C57BL/6J naive mice [1]; Mch 400 μg/kg) was 1.986 and 1.405 and 1.093 and 1.461 and 1.642, the “Effect on albuterol-mediated bronchodilation” value (C57BL/6J naive mice [2]) was “no enhancing effect” and the Solubility ([3]; Aqueous) was 0.032 mM (≈ 0.0196 mg/mL). The Solubility ([3]; DMSO) was 100 mM (≈ 61.2 mg/mL), the “125I-CYP binding (% of maximal)” value (WT murine β2AR; log[ISO] -4 M) was 0.36% and 0.2162% and 0.04816% and -0.00042% and the “125I-CYP binding (% of maximal)” value (WT murine β2AR; log[ISO] -4.49485 M) was 1.8839% and 1.834% and 1.807% and 2.135%. The “125I-CYP binding (% of maximal)” value (WT murine β2AR; log[ISO] -5.09691 M) was 4.237% and 3.492% and 3.782% and 5.55%, the “125I-CYP binding (% of maximal)” value (WT murine β2AR; log[ISO] -5.69897 M) was 11.5444% and 11.0871% and 11.3959% and 13.7676% and the “125I-CYP binding (% of maximal)” value (WT murine β2AR; log[ISO] -6.30103 M) was 26.4647% and 27.054% and 29.2061% and 34.2195%. The “125I-CYP binding (% of maximal)” value (WT murine β2AR; log[ISO] -6.90309 M) was 53.3668% and 53.0846% and 55.6007% and 58.7138%, the “125I-CYP binding (% of maximal)” value (WT murine β2AR; log[ISO] -7.50515 M) was 77.7987% and 78.0629% and 80.5466% and 83.0218% and the “125I-CYP binding (% of maximal)” value (WT murine β2AR; log[ISO] -8.10721 M) was 94.1342% and 94.186% and 93.5984% and 92.8613%. For the same molecule, the “125I-CYP binding (% of maximal)” value (WT murine β2AR; log[ISO] -8.70927 M) was 97.914% and 99.3549% and 97.9296% and 99.6433%, the “125I-CYP binding (% of maximal)” value (WT murine β2AR; log[ISO] -9.31133 M) was 100.454% and 99.5549% and 102.315% and 101.138% and the “125I-CYP binding (% of maximal)” value (WT murine β2AR; log[ISO] -9.91339 M) was 102.683% and 102.302% and 101.203% and 102.316%. The “125I-CYP binding (% of maximal)” value (WT murine β2AR; no ISO competitor) was 100.129% and 100.082% and 100.868% and 101.552%, the “125I-CYP binding (% of maximal)” value (V133F mutant murine β2AR; log[ISO] -4 M) was 0.3208% and 0.5206% and 0.2622% and 0.2602% and the “125I-CYP binding (% of maximal)” value (V133F mutant murine β2AR; log[ISO] -4.49485 M) was 0.9301% and 1.21% and 0.9752% and 0.9507%. The “125I-CYP binding (% of maximal)” value (V133F mutant murine β2AR; log[ISO] -5.09691 M) was 1.3005% and 2.025% and 1.333% and 1.6451%, the “125I-CYP binding (% of maximal)” value (V133F mutant murine β2AR; log[ISO] -5.69897 M) was 2.898% and 2.7378% and 2.508% and 2.41% and the “125I-CYP binding (% of maximal)” value (V133F mutant murine β2AR; log[ISO] -6.30103 M) was 7.927% and 6.9353% and 6.15% and 6.231%. For the same molecule, the “125I-CYP binding (% of maximal)” value (V133F mutant murine β2AR; log[ISO] -6.90309 M) was 15.2419% and 14.4367% and 12.7613% and 13.8675%, the “125I-CYP binding (% of maximal)” value (V133F mutant murine β2AR; log[ISO] -7.50515 M) was 33.0019% and 29.7875% and 27.3642% and 30.2603% and the “125I-CYP binding (% of maximal)” value (V133F mutant murine β2AR; log[ISO] -8.10721 M) was 56.9542% and 53.726% and 49.4673% and 52.7312%. The “125I-CYP binding (% of maximal)” value (V133F mutant murine β2AR; log[ISO] -8.70927 M) was 79.9915% and 78.4975% and 76.4167% and 78.5935%, the “125I-CYP binding (% of maximal)” value (V133F mutant murine β2AR; log[ISO] -9.31133 M) was 94.8693% and 96.2982% and 94.9618% and 94.6481% and the “125I-CYP binding (% of maximal)” value (V133F mutant murine β2AR; log[ISO] -9.91339 M) was 100.835% and 99.7406% and 98.19% and 100.221%. The “125I-CYP binding (% of maximal)” value (V133F mutant murine β2AR; no ISO competitor) was 103.118% and 101.321% and 102.31% and 102.083%.
